Series [1] relates to UBE3A-AS. Put plainly: UBE3A-AS RNA levels in CNS regions of Cynomolgus macaque after intrathecal lumbar puncture (SYBR Green qRT-PCR). As to conditions: for UBE3A-AS RNA levels in CNS regions (in words) / Cohen's d, effect size on UBE3A-AS RNA levels in CNS: 10 mg single intrathecal bolus, 28 days; for Difference in UBE3A-AS RNA levels relative to vehicle: Cynomolgus macaque, single 10 mg intrathecal lumbar puncture, 28 days after treatment. It counts as in vivo, Cynomolgus macaque (Macaca fascicularis). The protocol: The ASO-4 and ASO-6 target regions are conserved across several non-human primate (NHP) species, thus enabling both safety and efficacy studies in a large animal model. To examine the efficacy of ASO-4.4.PS.L and ASO-6.1.PO-1.O in the central nervous system (CNS), ASOs were delivered to Cynomolgus macaques by intrathecal lumbar puncture. Animals were administered a single bolus injection of vehicle (0.9% saline, n=5), ASO-6.1.PO-1.O (10 mg, n=3), and ASO.4.4.PS.L (10 mg, n=3). Twenty-eight days following treatment, central nervous (CNS) tissues were collected and the steady state RNA levels of UBE3A-AS were measured.
NHP studies were performed at Northern Biomedical Research and Charles River Laboratories using protocols approved by the institutions respective Institutional Animal Care and Use Committees. Male and female Cynomolgus macaques (Macaca fascicularis) weighing 2-4 kg were anesthetized and single 1 mL dose of ASO or vehicle was administered via intrathecal lumbar puncture. The dosing solution was prepared by dissolution of lyophilized ASO in the vehicle control article (0.9% sodium chloride) and was filtered through a 0.2-μm filter. CNS and spinal cord samples were harvested, and the CNS was sectioned into 4-mm coronal slices. Tissue samples were flash frozen and stored at −80° C. until RNA isolation.
A 4 mm tissue punch was taken from each region of interest of which approximately half was used for RNA isolation. RNA isolation was performed using the Qiagen RNeasy Plus Mini kit (74136, Qiagen) with tissue disruption and lysis performed with 5 mm stainless steel beads in a TissueLyser II. The RNA was eluted in two volumes of 30 μl water, for a total elution volume of 60 μl. RNA was quantified using the Qubit with the RNA XR assay (Q33224, Thermo Fisher Scientific). cDNA was synthesized from 2 μg of input RNA using the High Capacity RNA-to-cDNA kit (4387406, Thermo Fisher Scientific) in a total reaction volume of 50 μl.
Cynomolgus macaque UBE3A-AS RNA levels were estimated using SYBR Green quantitative reverse-transcription PCR (qRT-PCR). Total reaction volume was 10 μl, including 2 μl of cDNA, 1× PowerUp SYBR Green Master mix (A25741, Thermo Fisher Scientific), and 500 nM of each primer (forward and reverse). Cycling conditions were 2 minutes at 50° C., 2 minutes at 95° C., and 40 cycles of 15 seconds at 95° C. and 1 minute at 60° C., with readings taken at the 60° C. step of every cycle. Reactions were run on a BIO-RAD T1000 CFX96 thermocycler, with internal control (PPIA, forward: […] (SEQ ID NO:503); reverse: […] (SEQ ID NO:504)) and target (UBE3A-AS, forward: […] (SEQ ID NO:505); reverse: […] (SEQ ID NO:506)) reactions performed separately. Data was retrieved and initial analysis was done with the BIORAD CFX Maestro software, with in depth statistical analyses performed with Excel and JMP.

The subject of series [2] is UBE3A-AS. Put plainly: UBE3A-AS steady state RNA (qRT-PCR) in glutamatergic iPSC-derived neurons. Type of series: cell-based, human. To be noted: for 30 μM (Mean), normalized UBE3A-AS RNA level relative to vehicle / Emax Estimate (normalized UBE3A-AS RNA level relative to vehicle): 14 DIV to 20 DIV. How it is done: ASO-4 and ASO-6.1 were also examined in glutamatergic iPSC-derived neurons. Glutamatergic iPSC-derived neurons were treated at 14 DIV with a 10-point ½ log dose response curve of ASO-4 and ASO-6.1 [1 nM, 3 nM, 10 nM, 30 nM, 100 nM, 300 nM, 1 μM, 3 μM, 10 μM, and 30 μM (n=3)]. At 20 DIV, the IC50 and Emax of each ASO was estimated as described above (FIG. 5E-F and Table 15).
GABAergic and glutamatergic induced pluripotent stem cell (iPSC) derived neural precursor cells (NRC-100-010-001 and GNC-301-030-001, Cellular Dynamics International, Madison Wis.) were differentiated into neurons according to the manufactures protocol. Briefly, neural precursor cells were thawed and resuspended in chemically defined medium and added to sterile-culture plates coated with poly-D-lysine and laminin. The medium was replaced 24 hr after plating and then one-half of the medium was replaced every 3-5 days afterwards.
For cultured iPSC-derived neurons, RNA isolation and cDNA synthesis were performed using the Cell-to-CT kit (Thermo Fisher Scientific) in a lysate volume of 55 μl.
The steady state RNA levels of target transcripts were measured using TaqMan quantitative reverse-transcription PCR (qRT-PCR) assays. Total reaction volume was 10 uL, including 2 μl of cDNA, 1× Gene Expression Master mix (4369016, Thermo Fisher Scientific, Waltham, Mass.), and 1× TaqMan primer assay (Thermo Fisher Scientific). Cycling conditions were 2 minutes at 50° C., 10 minutes at 95° C., and 40 cycles of 15 seconds at 95° C. and 1 minute at 60° C., with readings taken at the 60° C. step of every cycle. Reactions were run on a BIO-RAD T1000 CFX96 thermocycler (Bio-Rad Laboratories, Hercules Calif.), with internal control (PPIA, Hs99999904_m1, Thermo Fisher Scientific) and target [UBE3A-AS, Hs01372957_m1; SNORD116-11, Hs04275268_gH; SNORD115, Hs04275288_gH; IPW, Hs03455409_s1; SNORD109A/B, AP47WVR (Thermo Fisher Scientific); UBE3A: forward […] (SEQ ID NO:500); reverse: […] (SEQ ID NO:501); and, probe: […] (SEQ ID NO:502)] reactions performed together. Data was retrieved and analyzed with the BIORAD CFX Maestro software (Bio-Rad Laboratories). Samples with internal control Cq values ≥30 were filtered. Quality of data was visually inspected to identify discrepancies between technical and/or plate replicates. Measurements for inferential statistics and descriptive statistics consist of ΔΔCq values (2^−ΔΔCq=2^−(Cq[target]−Cq[internal control])−(Cq[target]−Cq[internal control])).

Where [3] appears, read: Frontal Cortex (Corona radiata).
The mark [4] stands for this setting: parallel model, 4 Parameter logistic, read-out: IC50 (M), UBE3A-AS.
The mark [5] stands for this setting: treated 14 DIV, RNA 20 DIV, 10-point dose curve, full model, 4-parameter logistic (Hill), read-out: IC50 Estimate, UBE3A-AS.

Where two headings read alike, the source gives them in different places.

This is an account of results in patent US11198869B2, “Angelman syndrome antisense treatment” (The Texas A&M University System, priority 2017, dated 2021).

On to “A^L*G^L*A^L*a*t*g*g*c*a*c*a*t*c*t*5mC^L*T^L*T^L*G^L (NNNATGGCACATCTNNNN; LNA gapmer, PS, 5-methylcytosine, chemistry not fully specified) [ASO-4.4.PS.L]”, for which the “UBE3A-AS RNA levels in CNS regions (in words)” value in series [1] is “reduced UBE3A-AS RNA in most CNS regions, with large effects in temporal lobe, primary motor cortex, pons, medulla, hippocampus, globus pallidus, frontal cortex (corona radiata), prefrontal cortex, and lumbar spinal cord”. Moreover, the “Cohen's d, effect size on UBE3A-AS RNA levels in CNS” value in series [1] (versus ASO-6.1.PO-1.O) is 1.0; in series [1] (versus Vehicle) it was 1.4. Besides, the “Difference in UBE3A-AS RNA levels relative to vehicle” value in series [1] (Caudate Nucleus) was −0.21; in series [1] (Cerebellum), −0.05; in series [1] (setting [3]), −0.62; in series [1] (Frontal cortex), −0.71; in series [1] (Globus Pallidus), −0.38; in series [1] (Hippocampus), −0.57. Further, the “Difference in UBE3A-AS RNA levels relative to vehicle” value is on record as −0.32 in series [1] (Medulla); −0.59 in series [1] (Motor Cortex); −0.18 in series [1] (Oculomotor Nucleus); −0.47 in series [1] (Pons); −0.04 in series [1] (Putamen); −0.87 in series [1] (Spinal Cord (Lumbar)). The results for the “Difference in UBE3A-AS RNA levels relative to vehicle” value in series [1] (Temporal Lobe) and in series [1] (Thalamus) were −0.59 and −0.20, respectively.

For the substance “C^O*U^O*G^O*G^O*t*g*t*c*a*a*c*a*a*g*C^O*C^O*A^O*A^O [ASO-6.1]”, the “30 μM (Mean), normalized UBE3A-AS RNA level relative to vehicle” value in series [2] came to 0.04. Also, in series [2] (4-parameter logistic (Hill)), the “Emax Estimate (normalized UBE3A-AS RNA level relative to vehicle)” value was −0.27. Besides, the IC50 in series [2] (setting [4]) was 7.8e-07 M; in series [2] (setting [5]), 2.44e-07 M.

As to “C^O*U^O*G^O*G^O-t*g*t*c*a*a*c*a*a*g-C^O*C^O*A^O*A^o [ASO-6.1.PO-1.O]”, the “UBE3A-AS RNA levels in CNS regions (in words)” value in series [1] is “reduced UBE3A-AS RNA levels in most CNS regions, with large effects observed in pons, oculomotor nucleus, and lumbar spinal cord”. For the same substance, the “Cohen's d, effect size on UBE3A-AS RNA levels in CNS” value in series [1] (versus Vehicle) stood at 0.3. Further, the “Difference in UBE3A-AS RNA levels relative to vehicle” value in series [1] (Caudate Nucleus) is recorded as 0.10; in series [1] (Cerebellum), −0.11; in series [1] (setting [3]), −0.08; in series [1] (Frontal cortex) it was 0.01; in series [1] (Globus Pallidus) it was 0.10; in series [1] (Hippocampus), −0.19. The “Difference in UBE3A-AS RNA levels relative to vehicle” value in series [1] (Medulla) was −0.24; in series [1] (Motor Cortex), −0.19; in series [1] (Oculomotor Nucleus) it was −0.37; in series [1] (Pons) it was −0.27; in series [1] (Putamen), 0.07; in series [1] (Spinal Cord (Lumbar)), −0.32. For the same substance, the “Difference in UBE3A-AS RNA levels relative to vehicle” value in series [1] (Temporal Lobe) is 0.13; in series [1] (Thalamus), −0.02.

Consider “U^O*A^O*G^O*A^O*A^O*t*g*g*c*a*c*a*t*c*t*C^O*U^O*U^O*G^O*G^O [ASO-4]”, for which the “30 μM (Mean), normalized UBE3A-AS RNA level relative to vehicle” value in series [2] is given as 0.17. Moreover, in series [2] (4-parameter logistic (Hill)), the “Emax Estimate (normalized UBE3A-AS RNA level relative to vehicle)” value was −1.45. In addition, the IC50 in series [2] (setting [4]) was 3.06e-06 M; in series [2] (setting [5]), 0.000121 M. For the same substance, in series [2] (parallel model, relative to ASO-4 = 1), the “Relative Potency” value worked out at 1.
